Experimental data from patent publication US4260630A, “Skin diseases” (priority 1977, dated 1981).

Tests used:
[1] = tested on: skin of homozygote albino mice strain XVII nc/Z; assay: Chronic topical application on the ears of mice plus 365 nm UV irradiation (tumors, skin reactions); format: in vivo
Protocol: The experiments were effected on groups of 40 mice, male and female.
After 115 topical applications of psoralen, followed each time by 10 minutes of irradiation (cumulative doses of 2.07×10^6 J/m^2), 100% of the animals developed a tumor; 50% having tumors on two ears.
(§1) 3-CPs was also tested intraperitoneally (36 injections of 0.4 mg each over a period of 7 weeks).
In all these experiments the U.V. lamp was of the type of HPW 125 W, manufactured by Philips.

Saccharomyces cerevisiae = assay: Uptake and removal of the drug in yeast (incubation time, washing); format: cell-based
Protocol: B--Effects of 365 nm light alone or 3-CPs, uptake and removal of the drug.
Since high doses of 365 nm light are needed to induce a killing effect in Saccharomyces cells in the presence of 3-CPs, the effects of 365 nm light alone were measured for doses up to 7500 J/m^2. It was established that, in the range of doses used for the biological experiments, there was only a small lethal effect of 365 nm light alone. Taking into account the standard errors of the surviving fraction (±10%) and the fact that part of the light energy is absorbed by the drug itself, the effect of 365 nm light alone has been neglected in the experiments.

psoriasis lesions = assay: Treatment of psoriasis patients, 1% 3-CPs ointment plus 365 nm UV; format: in vivo; conditions: 1% ointment
Protocol: The effectiveness of thus-obtained 3-CPs was tested on 10 patients having ordinary psoriasis covering from 200 to 400 cm^2 of skin.
Preparation of 1% 3-CPs ointment:
1 g of 3-CPs was ground to a very fine powder and then dispersed in 70 g of "HYDROCERINE" (a commercially-available product manufactured by ROC) at 70° C. 29 ml of water were added at 70° C. in order to obtain an aqueous emulsion in oil.
The irradiation dose at 365 nm UV was of about 5 J/cm^2 per unit treatment and administered using the usual PUVA therapy set-up.

[2] = Light sensitivity of the drug in aqueous solution (chromatography, fluorescence spectra); format: physicochemical
cutaneous tissue = conditions: in vivo; cited from earlier work
[3] = Intraperitoneal toxicity in mice; format: in vivo; conditions: i.p., 36 injections of 0.4 mg over 7 weeks
Protocol: as §1

skin [4] = conditions: short treatment intervals; cited from earlier work
skin [5] = assay: Erythema, skin injury and tanning on skin of patients; format: in vivo; conditions: compared with 8-MOP
From the text: In contrast, it has now been discovered that the mono-functional derivatives of formula I provoke absolutely no erythema, neither immediate nor postponed. No skin injury, neither macro- nor microscopic, was observed on patients. It will be readily apparent to men skilled in the art that this property is a very unique one for compounds of the psoralen family. […] Thus, undesirable cosmetic side effects appear to be absent. Consequently, these compounds are of great interest since, in contrast to 8-MOP, they permit subsequent treatment at short-time intervals for example twice a day over prolonged periods of time without any sun-burnlike injury to the skin.

lymphocytes = conditions: therapeutic treatment; cited from earlier work
mice = conditions: hairless mice; cited from earlier work

| Compound | erythema, cutaneous inflammation, tumor ([1]; 115 applications on two ears, 30 minutes rest, 10 minutes irradiation) | mortality ([1]; 115 applications, 450 days of observation) | macroscopic or microscopic reaction ([1]; 450 days of observation) | binding in the dark (Saccharomyces cerevisiae) | effect after one minute incubation (Saccharomyces cerevisiae; 10 μg/ml, wild-type and rad9-4) | killing and "petite" induction vs incubation time before irradiation (Saccharomyces cerevisiae; 10 μg/ml, wild-type and rad9-4, constant 365 nm dose) | uptake and washing out compared with 8-MOP (Saccharomyces cerevisiae; Saccharomyces) | sensitizing effect after washing (Saccharomyces cerevisiae; doses of 365 nm light used) | erythema or cutaneous inflammation (psoriasis lesions) | speed of action compared with 8-MOP (psoriasis lesions) | light sensitivity [2] | photoproduct ([2]; illuminated aqueous solutions) | photosensitizing activity (cutaneous tissue) | survival [3] | weight and signs of toxicity [3] | erythemal reactions in the skin (skin [4]) | tanning effect (skin [5]) | lymphocytes in circulating blood (lymphocytes) | cancerogenic power in combination with U.V. radiation (mice) |
| --- | --- | --- | --- | --- | --- | --- | --- | --- | --- | --- | --- | --- | --- | --- | --- | --- | --- | --- | --- |
| CCOC(=O)c1cc2cc3ccoc3cc2oc1=O [Example 3-CPs, 3-carboethoxypsoralen] | neither erythema nor cutaneous inflammation nor any tumor | No animal died | Neither macroscopic nor microscopic reaction was observed | very loosely bound in the dark | about the maximum effect | independent of incubation time | taken up and washed out as readily as 8-MOP | no sensitizing effect after washing | no erythema or cutaneous inflammation | slower than that of 8-MOP | light sensitive | highly fluorescent photoproduct with the characteristics of 4',5'-dihydropsoralen | completely inactive | All the animals remained alive | without any decrease in weight or other sign of toxicity | – | – | – | – |
| COc1c2occc2cc2ccc(=O)oc12 [Example 8-MOP, 8-methoxypsoralen, reference compound] | – | – | – | – | – | – | – | – | – | – | – | – | – | – | – | can cause violent erythemal reactions in the skin | strong tanning effect | causes a decrease of the lymphocytes in circulating blood | high cancerogenic power |
